{
  "source": "patent US7256202B2",
  "about": "“Composition and method for treatment of hepatic encephalopathy” (priority 2003, dated 2007)",
  "test_system": "patient with hepatic encephalopathy",
  "test": "Case report: patient with cryptogenic cirrhosis and hepatic encephalopathy treated with lactulose, then PEG 3350/lactulose",
  "type": "in vivo, human",
  "source_text": "The patient is a person with cryptogenic cirrhosis, a type of cirrhosis which has unknown etiology. They have had extensive workups for chronic anemia in one of the major California hospitals and was placed on neomycin, Lasix, iron sulfate, lactulose, and Prevacid; they also were on a restricted protein diet to reduce ammonia production. They had intermittent episodes of hepatic encephalopathy during their hospitalization. The patient's hemoglobin slowly drops and they require transfusions periodically because of portal gastropathy. […] Although the therapeutic range is three to four bowel movements per day, it is very difficult for them to get to that range because of these effects.\nThe patient has required several hospitalizations for lethargy, declines in hemoglobin, and hepatic encephalopathy. They have intermittent episodes of abdominal discomfort and mild irritation of various small bowel loops.\nThe platelet count is in the range of 57,000. The lowest level of ammonia has been 30 micromoles/L and several levels have been 80 to 90 micromoles/L with the patient taking the lactulose.\nThe patient has had three hospitalizations for hepatic encephalopathy and anemia, mostly resulting from poor compliance. The patient's last hospitalization was July 22nd. Four months later, the patient presented us with hepatic encephalopathy and bedsores.\nThey were switched to 17 g MiraLax® (PEG 3350 powder) combined with 10 g of lactulose dissolved in water and given twice a day. The patient's ammonia level is now in the 70 to 75-range of micromoles/L and holding fairly steady on a maintenance dosage of this composition once per day.\nThey have achieved clinical and therapeutic levels of ammonia levels, and is oriented to time and place, with no clinical signs of hepatic encephalopathy on physical examination.",
  "key": {"[1]": {"settings": "lactulose up to three to four times a day"}},
  "data": [
    {"compound": "OC[C@H]1O[C@@H](O[C@@H]2[C@@H](CO)OC(O)(CO)[C@H]2O)[C@H](O)[C@@H](O)[C@H]1O", "note": "(mixture of isomers) [lactulose]", "values": [
      {"measurement": "bowel movements per day", "setting": "[1]", "result": "three to four to five"},
      {"measurement": "side effects with the drug", "setting": "[1]", "result": "nausea, abdominal discomfort, and bloating sensation"},
      {"measurement": "lowest level of ammonia", "setting": "patient taking the lactulose", "result": 30, "unit": "µmol/L"}
    ]}
  ]
}
